These are literature values, as cited in patent publication US20090143360A1, “Oxcarbazepine Formulation” (priority 2005, published 2009).

Regarding `NC(=O)N1c2ccccc2CC(=O)c2ccccc21` [Oxcarbazepine, 10,11-Dihydro-10-oxo-5H-dibenz[b,f]azepine-5-carboxamide], the Solubility in water entry was “very low”.
